According to ChEMBL document CHEMBL1143656, “A novel series of potent gamma-secretase inhibitors based on a benzobicyclo[4.2.1]nonane core” (Bioorg Med Chem Lett, 2005):

tested on: Mus musculus; test: Concentration of […] beta40 in brain of transgenic APP-YAC mice 4 hr after 100 mg/kg peroral dose; format: functional; conditions: route oral

Compound	Brain concentration [µM]
O=S(=O)(NC1C2CCC1Cc1cc(/C=C/CN3CCOCC3)ccc1C2)c1ccc(Cl)s1 (stereo in doubt; form 1) [listing 1 of 2 here]	16.7

tested on: Mus musculus; test: Concentration of […] beta40 in plasma of transgenic APP-YAC mice 4 hr after 100 mg/kg peroral dose; format: functional, organism-based; set-up: dose 100 mg/kg; conditions: not given

Compound	Plasma concentration [µM]
O=S(=O)(NC1C2CCC1Cc1cc(/C=C/CN3CCOCC3)ccc1C2)c1ccc(Cl)s1 (stereo in doubt; form 1) [listing 2 of 2 here]	> 7.91

tested on: Mus musculus; test: Reduction of […] beta-40 in transgenic APP-YAC mice 4 hr after 100 mg/kg peroral dose; format: functional; conditions: route oral

Compound	Reduction [%]
O=S(=O)(NC1C2CCC1Cc1cc(/C=C/CN3CCOCC3)ccc1C2)c1ccc(Cl)s1 (stereo in doubt; form 1) [listing 1 of 2 here]	50

target: Gamma-secretase; test: Inhibitory concentration against Gamma-secretase in whole cell inhibition assay using SH-SY5Y cells; format: functional, cell-based, Homo sapiens; conditions: not given

Compound	IC50 [nM]
O=S(=O)(NC1C2CCC1Cc1cc(/C=C/CN3CCOCC3)ccc1C2)c1ccc(Cl)s1 (racemic)	5
CCCS(=O)(=O)NC1C2CCC1Cc1ccccc1C2 (stereo not given)	721
O=[N+]([O-])c1ccc(S(=O)(=O)NC2C3CCC2Cc2ccccc2C3)cc1 (stereo not given)	> 1000
CC(C)(C)c1ccc(S(=O)(=O)NC2C3CCC2Cc2ccccc2C3)cc1 (stereo not given)	> 1000
O=S(=O)(NC1C2CCC1Cc1cc(OCCN3CCC(O)C3)ccc1C2)c1ccc(Cl)s1 (stereo not given)	209
O=S(=O)(NC1C2CCC1Cc1ccccc1C2)c1ccccc1F (stereo not given)	239
CCCCS(=O)(=O)NC1C2CCC1Cc1ccccc1C2 (stereo not given)	610
CN1CCN(C/C=C/c2ccc3c(c2)CC2CCC(C3)C2NS(=O)(=O)c2ccc(Cl)s2)CC1 (stereo not given)	39
CCCCCS(=O)(=O)NC1C2CCC1Cc1ccccc1C2 (stereo not given)	> 1000
O=S(=O)(NC1C2CCC1Cc1cc(F)ccc1C2)c1ccccc1 (stereo not given)	70
O=S(=O)(NC1C2CCC1Cc1ccccc1C2)c1cccc(F)c1 (stereo not given)	324
CC1CCCN1CCOc1ccc2c(c1)CC1CCC(C2)C1NS(=O)(=O)c1ccc(Cl)s1 (stereo not given)	335
O=S(=O)(NC1C2CCC1Cc1ccccc1C2)c1ccccc1 (stereo not given)	190
O=S(=O)(NC1C2CCC1Cc1cc(OCCN3CCCCC3)ccc1C2)c1ccc(Cl)s1 (stereo not given)	73
CC1CCCCN1CCOc1ccc2c(c1)CC1CCC(C2)C1NS(=O)(=O)c1ccc(Cl)s1 (stereo not given)	227
O=S(=O)(NC1C2CCC1Cc1ccccc1C2)c1ccc(Cl)cc1 (stereo not given)	467
O=S(=O)(NC1C2CCC1Cc1cc(/C=C/CN3CCOCC3)ccc1C2)c1ccc(Cl)s1 (stereo in doubt; form 2)	315
Cc1ccc(S(=O)(=O)NC2C3CCC2Cc2ccccc2C3)cc1 (stereo not given)	651
CCS(=O)(=O)NC1C2CCC1Cc1ccccc1C2 (stereo not given)	> 1000
O=S(=O)(NC1C2CCC1Cc1cc(OCCN3CCOCC3)ccc1C2)c1ccc(Cl)s1 (stereo not given)	5
O=S(=O)(NC1C2CCC1Cc1cc(OCCN3CCC(O)CC3)ccc1C2)c1ccc(Cl)s1 (stereo not given)	623
O=S(=O)(NC1C2CCC1Cc1ccccc1C2)c1ccc(F)cc1 (stereo not given)	129
Cc1cccc(S(=O)(=O)NC2C3CCC2Cc2ccccc2C3)c1 (stereo not given)	> 1000
O=S(=O)(NC1C2CCC1Cc1cc(/C=C/CN3CCCCC3)ccc1C2)c1ccc(Cl)s1 (stereo not given)	152
O=S(=O)(NC1C2CCC1Cc1ccccc1C2)c1cccs1 (stereo not given)	50
O=S(=O)(NC1C2CCC1Cc1ccccc1C2)c1ccc(C(F)(F)F)cc1 (stereo not given)	> 1000
CCc1ccc(S(=O)(=O)NC2C3CCC2Cc2ccccc2C3)cc1 (stereo not given)	> 1000
O=S(=O)(NC1C2CCC1Cc1cc(/C=C/CN3CCOCC3)ccc1C2)c1ccc(Cl)s1 (stereo in doubt; form 1) [listing 1 of 2 here]	1

Now from value to compound:

IC50 [nM]	Compound
15	O=S(=O)(NC1C2CCC1Cc1cc(/C=C/Cn3ccnc3)ccc1C2)c1ccc(Cl)s1 (stereo not given)
490	COc1ccc2c(c1)CC1CCC(C2)C1NS(=O)(=O)c1ccc(Cl)s1 (stereo not given)
6	O=C(CN1CCCCC1)Nc1ccc2c(c1)CC1CCC(C2)C1NS(=O)(=O)c1ccc(Cl)s1 (stereo not given)
74	O=C(Nc1ccc2c(c1)CC1CCC(C2)C1NS(=O)(=O)c1ccccc1)OCc1ccccc1 (stereo not given)
226	CN(CC(=O)Nc1ccc2c(c1)CC1CCC(C2)C1NS(=O)(=O)c1ccc(Cl)s1)Cc1ccccc1 (stereo not given)
146	O=S(=O)(NC1C2CCC1Cc1cc(Cl)ccc1C2)c1ccc(Cl)s1 (stereo not given)
> 1000	O=C(Nc1ccc2c(c1)CC1CCC(C2)C1NS(=O)(=O)c1ccccc1)c1ccccc1 (stereo not given)
153	O=C(Nc1ccc2c(c1)CC1CCC(C2)C1NS(=O)(=O)c1ccccc1)OCc1ccccc1Cl (stereo not given)
69	CN1CCN(CC(=O)Nc2ccc3c(c2)CC2CCC(C3)C2NS(=O)(=O)c2ccc(Cl)s2)CC1 (stereo not given)
7	O=C(CN1CCCC1)Nc1ccc2c(c1)CC1CCC(C2)C1NS(=O)(=O)c1ccc(Cl)s1 (stereo not given)
> 1000	O=S(=O)(NC1C2CCC1Cc1ccccc1C2)c1cc(Cl)c(Cl)s1 (stereo not given)
23	O=C(Nc1ccc2c(c1)CC1CCC(C2)C1NS(=O)(=O)c1ccc(Cl)s1)OCc1ccccc1 (stereo not given)
29	O=S(=O)(NC1C2CCC1Cc1cc(F)ccc1C2)c1ccc(Cl)s1 (stereo not given)
> 1000	CCCCCC(=O)Nc1ccc2c(c1)CC1CCC(C2)C1NS(=O)(=O)c1ccccc1 (stereo not given)
21	O=S(=O)(NC1C2CCC1Cc1cc(/C=C/CN3CCN(c4ccccc4)CC3)ccc1C2)c1ccc(Cl)s1 (stereo not given)
175	O=S(=O)(NC1C2CCC1Cc1c(Cl)cccc1C2)c1ccc(Cl)s1 (stereo not given)
34	O=S(=O)(NC1C2CCC1Cc1c(F)cccc1C2)c1ccc(Cl)s1 (stereo not given)

IC50 [nM]	Compound
> 1000	CC(=O)Nc1ccc2c(c1)CC1CCC(C2)C1NS(=O)(=O)c1ccccc1 (stereo not given)
75	O=C(Nc1ccc2c(c1)CC1CCC(C2)C1NS(=O)(=O)c1ccccc1)c1ccccn1 (stereo not given)
535	CC(C)CCCC(=O)Nc1ccc2c(c1)CC1CCC(C2)C1NS(=O)(=O)c1ccccc1 (stereo not given)
12	O=C(Nc1ccc2c(c1)CC1CCC(C2)C1NS(=O)(=O)c1ccc(Cl)s1)c1ccccn1 (stereo not given)
> 1000	O=C(Nc1ccc2c(c1)CC1CCC(C2)C1NS(=O)(=O)c1ccccc1)c1ccncc1 (stereo not given)
412	O=C(Nc1ccc2c(c1)CC1CCC(C2)C1NS(=O)(=O)c1ccccc1)OCc1cccc(Cl)c1 (stereo not given)
269	O=S(=O)(NC1C2CCC1Cc1cc(O)ccc1C2)c1ccc(Cl)s1 (stereo not given)
62	O=S(=O)(NC1C2CCC1Cc1ccccc1C2)c1ccc(Cl)s1 (stereo not given)
6000	Nc1ccc2c(c1)CC1CCC(C2)C1NS(=O)(=O)c1ccccc1 (stereo not given)
> 1000	COCC(=O)Nc1ccc2c(c1)CC1CCC(C2)C1NS(=O)(=O)c1ccccc1 (stereo not given)
> 1000	O=C(Nc1ccc2c(c1)CC1CCC(C2)C1NS(=O)(=O)c1ccccc1)c1cccnc1 (stereo not given)
16	O=C(Nc1ccc2c(c1)CC1CCC(C2)C1NS(=O)(=O)c1ccccc1)OCc1ccc(Cl)cc1 (stereo not given)
7	O=C(CN1CCOCC1)Nc1ccc2c(c1)CC1CCC(C2)C1NS(=O)(=O)c1ccc(Cl)s1 (stereo not given)
> 1000	O=C(CCc1ccccc1)Nc1ccc2c(c1)CC1CCC(C2)C1NS(=O)(=O)c1ccccc1 (stereo not given)
5	O=C(CN1CCN(c2ccccc2)CC1)Nc1ccc2c(c1)CC1CCC(C2)C1NS(=O)(=O)c1ccc(Cl)s1 (stereo not given)
41	CCN(CC)CC(=O)Nc1ccc2c(c1)CC1CCC(C2)C1NS(=O)(=O)c1ccc(Cl)s1 (stereo not given)
3490	O=C(CNCc1ccccc1)Nc1ccc2c(c1)CC1CCC(C2)C1NS(=O)(=O)c1ccc(Cl)s1 (stereo not given)
